# Results reported in ChEMBL document CHEMBL1212745, “Structure of the heme biosynthetic Pseudomonas aeruginosa porphobilinogen synthase in complex with the antibiotic alaremycin” (Antimicrob Agents Chemother, 2010).
# Active and inactive are the calls of the source. The rule behind the calls is not given here.
# Tests used:
# [1] = test system: Escherichia coli; assay: Antimicrobial activity against Escherichia coli DH10B up to 24 hrs by microdilution method; assay type: functional; conditions: K-12 DH10B
# [2] = test system: Pseudomonas aeruginosa; assay: Antimicrobial activity against Pseudomonas aeruginosa PAO1 up to 24 hrs by microdilution method; assay type: functional; conditions: PAO1, 24 h
# [3] = test system: Bacillus subtilis; assay: Antimicrobial activity against Bacillus subtilis JH642 up to 24 hrs by microdilution method; assay type: functional; conditions: JH642, 24 h
# [4] = test system: Priestia megaterium; assay: Antimicrobial activity against Bacillus megaterium DSM319 up to 24 hrs by microdilution method; assay type: functional; conditions: DSM 319, 24 h
# [5] = test system: Streptomyces coelicolor; assay: Antimicrobial activity against Streptomyces coelicolor DMS 40233 up to 24 hrs by microdilution method; assay type: functional; conditions: DMS 40233, 24 h
# [6] = test system: Streptomyces avermitilis; assay: Antimicrobial activity against Streptomyces avermitilis DSM 46492 up to 24 hrs by microdilution method; assay type: functional; conditions: DSM 46492, 24 h
# [7] = test system: Escherichia coli; assay: Antimicrobial activity against Escherichia coli CSA1 up to 24 hrs by microdilution method; assay type: functional; conditions: CSA1, 24 h
# [8] = Antimicrobial activity against Streptomyces sp. A012304 up to 24 hrs by microdilution method; assay type: functional; conditions: Streptomyces sp. A012304, 24 h
# [9] = test system: Escherichia coli str. K-12 substr. DH10B; assay: Inhibition of Escherichia coli porphobilinogen synthase assessed as enzyme activity at 5 mM relative to control; design: scale not given: the % may be the effect or the level left
# [10] = test system: Pseudomonas aeruginosa PAO1; assay: Inhibition of Pseudomonas aeruginosa PAO1 porphobilinogen synthase assessed as enzyme activity at 5 mM relative to control; design: scale not given: the % may be the effect or the level left
# [11] = biological target: T1, Delta-aminolevulinic acid dehydratase (Bacillus subtilis) (UniProt P30950); assay: Inhibition of Bacillus subtilis JH642 porphobilinogen synthase assessed as enzyme activity at 5 mM relative to control; design: scale not given: the % may be the effect or the level left
# T1 sequence (whole entry): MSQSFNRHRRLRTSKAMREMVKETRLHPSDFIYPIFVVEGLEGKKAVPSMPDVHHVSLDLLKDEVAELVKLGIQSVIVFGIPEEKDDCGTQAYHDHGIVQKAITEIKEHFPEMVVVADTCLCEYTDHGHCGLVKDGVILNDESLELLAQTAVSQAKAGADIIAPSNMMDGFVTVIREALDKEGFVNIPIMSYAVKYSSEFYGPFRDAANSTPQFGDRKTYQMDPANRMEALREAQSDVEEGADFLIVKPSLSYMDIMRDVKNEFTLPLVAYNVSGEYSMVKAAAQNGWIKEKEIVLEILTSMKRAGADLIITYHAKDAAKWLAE
# [12] = test system: Bacillus megaterium DSM 319; assay: Inhibition of Bacillus megaterium DSM319 porphobilinogen synthase assessed as enzyme activity at 5 mM relative to control; design: scale not given: the % may be the effect or the level left
# [13] = biological target: T2, Delta-aminolevulinic acid dehydratase (Streptomyces coelicolor) (UniProt P54919); assay: Inhibition of Streptomyces coelicolor DMS 40233 porphobilinogen synthase assessed as enzyme activity at 5 mM relative to control; design: scale not given: the % may be the effect or the level left
# T2 sequence (whole entry): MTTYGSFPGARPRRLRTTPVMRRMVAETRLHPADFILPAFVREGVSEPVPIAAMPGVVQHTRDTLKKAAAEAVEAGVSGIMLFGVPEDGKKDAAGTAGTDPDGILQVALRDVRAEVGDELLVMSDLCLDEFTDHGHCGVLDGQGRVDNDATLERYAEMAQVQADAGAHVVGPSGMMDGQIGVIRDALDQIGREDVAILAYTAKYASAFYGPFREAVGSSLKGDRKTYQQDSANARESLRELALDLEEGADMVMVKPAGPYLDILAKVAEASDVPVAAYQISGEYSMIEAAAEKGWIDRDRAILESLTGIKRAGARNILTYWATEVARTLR
# [14] = biological target: T3, Delta-aminolevulinic acid dehydratase (Streptomyces avermitilis) (UniProt Q82E74); assay: Inhibition of Streptomyces avermitilis DSM 46492 porphobilinogen synthase assessed as enzyme activity at 5 mM relative to control; design: scale not given: the % may be the effect or the level left
# T3 sequence (whole entry): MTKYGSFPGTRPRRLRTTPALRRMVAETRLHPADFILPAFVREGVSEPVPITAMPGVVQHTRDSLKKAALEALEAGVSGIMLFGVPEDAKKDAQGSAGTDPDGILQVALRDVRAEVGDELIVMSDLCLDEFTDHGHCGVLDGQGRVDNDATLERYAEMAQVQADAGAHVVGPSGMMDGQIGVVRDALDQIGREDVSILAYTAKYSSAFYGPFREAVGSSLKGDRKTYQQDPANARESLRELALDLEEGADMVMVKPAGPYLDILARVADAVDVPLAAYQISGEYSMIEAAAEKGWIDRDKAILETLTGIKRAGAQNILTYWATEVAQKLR
# [15] = test system: Escherichia coli; assay: Inhibition of Escherichia coli CSA1 porphobilinogen synthase assessed as enzyme activity at 5 mM relative to control; design: scale not given: the % may be the effect or the level left
# [16] = test system: Streptomyces sp. A012304; assay: Inhibition of Streptomyces sp. A012304 porphobilinogen synthase assessed as enzyme activity at 5 mM relative to control; design: scale not given: the % may be the effect or the level left
# [17] = test system: Escherichia coli str. K-12 substr. DH10B; assay: Inhibition of Escherichia coli porphobilinogen synthase assessed as enzyme activity at 10 mM relative to control; design: scale not given: the % may be the effect or the level left
# [18] = test system: Pseudomonas aeruginosa PAO1; assay: Inhibition of Pseudomonas aeruginosa PAO1 porphobilinogen synthase assessed as enzyme activity at 10 mM relative to control; design: scale not given: the % may be the effect or the level left
# [19] = biological target: T1, Delta-aminolevulinic acid dehydratase (Bacillus subtilis); assay: Inhibition of Bacillus subtilis JH642 porphobilinogen synthase assessed as enzyme activity at 10 mM relative to control; design: scale not given: the % may be the effect or the level left
# [20] = test system: Bacillus megaterium DSM 319; assay: Inhibition of Bacillus megaterium DSM319 porphobilinogen synthase assessed as enzyme activity at 10 mM relative to control; design: scale not given: the % may be the effect or the level left
# [21] = biological target: T2, Delta-aminolevulinic acid dehydratase (Streptomyces coelicolor); assay: Inhibition of Streptomyces coelicolor DMS 40233 porphobilinogen synthase assessed as enzyme activity at 10 mM relative to control; design: scale not given: the % may be the effect or the level left
# [22] = biological target: T3, Delta-aminolevulinic acid dehydratase (Streptomyces avermitilis); assay: Inhibition of Streptomyces avermitilis DSM 46492 porphobilinogen synthase assessed as enzyme activity at 10 mM relative to control; design: scale not given: the % may be the effect or the level left
# [23] = test system: Escherichia coli; assay: Inhibition of Escherichia coli CSA1 porphobilinogen synthase assessed as enzyme activity at 10 mM relative to control; design: scale not given: the % may be the effect or the level left
# [24] = test system: Streptomyces sp. A012304; assay: Inhibition of Streptomyces sp. A012304 porphobilinogen synthase assessed as enzyme activity at 10 mM relative to control; design: scale not given: the % may be the effect or the level left
# [25] = test system: Pseudomonas aeruginosa PAO1; assay: Activity at Pseudomonas aeruginosa PAO1 porphobilinogen synthase
# [26] = test system: Pseudomonas aeruginosa PAO1; assay: Ratio of Kcat to Km for Pseudomonas aeruginosa PAO1 porphobilinogen synthase
# [27] = Inhibition of Pseudomonas aeruginosa PAO1 porphobilinogen synthase after 60 mins by spectrophotometry
# [28] = Inhibition of Pseudomonas aeruginosa PAO1 porphobilinogen synthase by Lineweaver-Burke plot analysis
# [29] = test system: Methanosarcina barkeri; assay: Activity at Methanosarcina barkeri porphobilinogen synthase
# [30] = test system: Methanosarcina barkeri; assay: Ratio of Kcat to Km for Methanosarcina barkeri porphobilinogen synthase
# [31] = Inhibition of Methanosarcina barkeri porphobilinogen synthase after 60 mins by spectrophotometry
# [32] = Inhibition of Methanosarcina barkeri porphobilinogen synthase by Lineweaver-Burke plot analysis
# [33] = test system: Escherichia coli; assay: Antimicrobial activity against Escherichia coli CSA1 at =< 40 mg/ml up to 24 hrs by microdilution method in presence of heme and absence of 5-aminolaevulinic acid; assay type: functional, organism-based
# [34] = test system: Escherichia coli; assay: Antimicrobial activity against Escherichia coli CSA1 at =< 40 mg/ml up to 24 hrs by microdilution method in presence of 5-aminolaevulinic acid and heme; assay type: functional, organism-based
# [35] = test system: Escherichia coli; assay: Antimicrobial activity against Escherichia coli CSA1 at =< 40 mg/ml up to 24 hrs by microdilution method in absence of 5-aminolaevulinic acid; assay type: functional, organism-based
# [36] = test system: Escherichia coli; assay: Antimicrobial activity against Escherichia coli CSA1 at =< 40 mg/ml up to 24 hrs by microdilution method in presence of 5-aminolaevulinic acid; assay type: functional, organism-based
compound,measurement,setting,value
C=C(NC(C)=O)C(=O)CCC(=O)O [ALAREMYCIN],MIC,[1],4 mM
same,MIC,[2],12 mM
same,MIC,[3],14 mM
same,MIC,[4],4 mM
same,MIC,[5],8 mM
same,MIC,[6],8 mM
same,MIC,[7],10 mM
same,MIC,[8],> 20 mM
same,Activity,[9],30%
same,Activity,[10],92%
same,Activity,[11],61%
same,Activity,[12],3%
same,Activity,[13],77%
same,Activity,[14],68%
same,Activity,[15],36%
same,Activity,[16],90%
same,Activity,[17],< 1%
same,Activity,[18],25%
same,Activity,[19],30%
same,Activity,[20],< 1%
same,Activity,[21],22%
same,Activity,[22],< 1%
same,Activity,[23],< 1%
same,Activity,[24],79%
same,Km,[25],0.32 mM
same,kcat,[25],16.1 s⁻¹
same,kcat/Km,[26],50300 M⁻¹ s⁻¹
same,IC50,[27],2100 µM
same,Ki,[28],1330 µM
same,Km,[29],0.07 mM
same,kcat,[29],0.012 s⁻¹
same,kcat/Km,[30],170 M⁻¹ s⁻¹
same,IC50,[31],2200 µM
same,Ki,[32],1510 µM
same,Activity,[33],inactive
same,Activity,[34],inactive
same,Activity,[35],Active
same,Activity,[36],Active
